Measured values reported in patent US20020137781A1, “Preparation and use of enantiomer-pure 2,4-disubstituted oxazolines” (priority 1999, published 2002).

Legend:
Tetranychus urticae = experiment: Effect against Tetranychus urticae; type: in vivo; conditions: 400 ppm spray on bean plants, mixed population, 6 days at 25° C.
Procedure: Young bean plants are colonised with a mixed population of Tetranychus urticae and, one day later, are sprayed with an aqueous emulsion spray mixture containing 400 ppm of active ingredient. The plants are subsequently incubated for 6 days at 25° C. and then evaluated. The percentage reduction of the population (% response) is determined by comparing the total number of dead eggs, larvae, and adults on the treated plants with those on the untreated plants.

Heliothis virescens = experiment: Ovicidal/larvicidal effect on Heliothis virescens; type: in vivo; conditions: 400 ppm spray on eggs laid on cotton, after 8 days
Text: Eggs of Heliothis virescens laid on cotton are sprayed with an aqueous emulsion spray mixture containing 400 ppm of active ingredient. After 8 days, the percentage hatching rate of the eggs and the survival rate of the caterpillars are compared with those for untreated controls (% reduction of population)

Anthonomus grandis = experiment: Effect against Anthonomus grandis; type: in vivo; conditions: 400 ppm spray on cotton plants, adults, three days
Procedure: Young cotton plants are sprayed with an aqueous emulsion spray mixture containing 400 ppm of active ingredient. After the spray coating has dried on, the cotton plants are colonised with 10 adult Anthonomus grandis and placed in a plastic container. Three days later they are evaluated. The percentage reduction of the population and of the feeding damage (% response) is determined by comparing the total number of dead beetles and the feeding damage on the treated plants with those on the untreated plants.

Aonidiella aurantii = experiment: Effect against Aonidiella aurantii; type: in vivo; conditions: 400 ppm, potato tubers immersed, 10 to 12 weeks
Procedure: Potato tubers are colonised with crawlers of Aonidiella aurantii. After about 2 weeks, the potatoes are immersed in an aqueous emulsion or suspension spray mixture containing 400 ppm of active ingredient. After the tubers have dried off, they are incubated in a plastic container. Evaluation is effected 10 to 12 weeks later by comparing the survival rate of the crawlers of the first secondary generation of the treated population with that of untreated control batches.

Boophilus microplus = experiment: In vitro effect on Boophilus microplus; conditions: 100 to 0.32 ppm; BIARRA and ULAM strain identical
Procedure: Four test series each of 10 engorged female adults of Boophilus microplus are stuck to a plastic plate and covered for 1 hour with a wad of cottonwool soaked with an aqueous suspension or emulsion of the test substance. The test is carried out with concentrations of 100, 32, 10, 3.2, 1.0 and 0.32 ppm. The wad of cottonwool is then removed, and the ticks are incubated for 28 days for the eggs to be laid. The effect on Boophilus microplus is assessed according to the following 5 criteria:
1. Number of dead females (immobile with black discoloration) before ovipositon;
2. Number of ticks surviving for several days, but no eggs laid;
3. Number of cases in which eggs are laid, but nothing is hatched;
This test is carried out with both the BIARRA and the ULAM strain, and the results in both cases are identical.

Blattella germanica = experiment: Effect against Blattella germanica; type: in vivo; conditions: application rate of 2 g/m^2, nymphs exposed 2 hours, evaluated after 48 hours
Procedure: Sufficient acetonic solution (0.1%) of the active ingredient is added to a Petri dish for the quantity thereof to correspond to an application rate of 2 g/m^2. When the solvent has evaporated, 20 nymphs of Blattella germanica (last nymph stage) are placed in the dish and exposed to the action of the test substance for 2 hours. The nymphs are then anaesthetised with CO2, added to a fresh Petri dish and kept in the dark at 25° and 50 to 70% humidity. After 48 hours, the insecticidal effect is evaluated by determining the mortality rate.

[1] = test system: Musca domestica of an OP-resistant strain; experiment: Effect against Musca domestica; type: in vivo; conditions: 250 ppm in sugar cube, 25° C., after 24 hours, read-out: mortality rate (response)
Procedure: A sugar cube is treated with a solution of the test substance in such a way that the concentration of test substance in the sugar, after drying over night, is 250 ppm. The cube treated in this way is placed on an aluminium dish with wet cottonwool and 10 adult Musca domestica of an OP-resistant strain. It is covered with a beaker and incubated at 25° C. The mortality rate is determined after 24 hours.

Ctenocephalides felis = experiment: In vitro effect on eggs, larvae, or pupae of the cat flea Ctenocephalides felis; conditions: 15, 1.5, 0.15 and 0.015 ppm test solutions, after 21 days
Procedure: Acetonic test solutions are prepared containing test substances in concentrations of 15, 1.5, 0.15 and 0.015 ppm. 9.9 ml of each test solution is mixed with 14.85 g of culture medium for flea larvae and dried for about 12 hours. The slightly clumped, dry culture medium is mechanically pulverized again until it is homogeneous and free-flowing. It is then transferred to bottles for the breeding of fleas. To each bottle, 100 to 200 flea eggs are added, the bottles are loosely closed with a wad of cottonwool and placed in an incubator at 25 to 26° C. and a relative humidity of about 60%. After 21 days, the effect of the test substances in the different concentrations is evaluated and the lowest effective concentration determined using a stereomicroscope. The activity is evaluated on the basis of the hatching rate, larva development, pupation, and the hatching of young fleas. Enantiomers A of formula (I) show a pronounced effect in this test.

Fc1cccc(F)c1C1=NC(c2ccc(-c3ccc(C(F)(F)F)cc3)cc2)CO1 (single isomer, unassigned) [1.1, 2-(2,6-difluoro-phenyl)-4-(4′-trifluoromethylbiphenyl-4-yl)-4,5-dihydro-oxazole]
percentage reduction of the population (% response) (Tetranychus urticae): more than 80% | % reduction of population (hatching rate of eggs and survival rate of caterpillars) (Heliothis virescens): more than 80% | percentage reduction of the population and of the feeding damage (% response) (Anthonomus grandis): more than 80% | response (survival rate of the crawlers of the first secondary generation vs untreated) (Aonidiella aurantii): more than 80% | activity on Boophilus microplus (in words) (Boophilus microplus): most active test substance | mortality rate (response) (Blattella germanica): more than 80% | mortality at 250 ppm [1]: > 80% | effect on hatching rate, larva development, pupation and hatching of young fleas (in words) (Ctenocephalides felis): most active test substance
